In patent US20140088306A1, “RADIOACTIVE FLUORINE-LABELED QUINOXALINE COMPOUND” (Nihon Medi-Physics Co., Ltd., priority 2012, published 2014):

Key:
[1] = molecular target: T1, Aβ1-42 aggregates (Homo sapiens, UniProt P05067); assay: Binding evaluation using Aβ peptide aggregation in solution (Example 13); conditions: for Ki: inhibition of [^125I]IMPY binding to Aβ1-42 aggregates, value following ± shows SE, read-out: Kl
T1 construct: Aβ1-42 aggregates (Peptide Institute, Inc, Osaka) were dissolved in 0.1 mol/L phosphate-buffered saline; purchased Peptide Institute, Inc., Osaka
Procedure: Aβ1-42 peptide (Peptide Institute, Inc., Osaka) was gently dissolved at a concentration of 0.25 mg/mL in a PBS solution (pH 7.4), which was then incubated at 37° C. for 42 hours to prepare an Aβ1-42 aggregate PBS solution.
Thereafter, the resultant was filtered through Whatman (R) GF/B filter using a Brandell M-24 cell harvester, and the radioactivity of the filter was measured using a γ counter (Wallac 1470 Wizard, from Perkin-Elmer).
The half inhibition concentration (IC50) value was determined from a replacement straight line using GraphPad Prism 5.0, and the inhibition constant (Ki) was calculated using the Cheng-Prusoff equation: the above-described Expression (1).

[2] = tested on: amyloid plaques; assay: Autoradiography using postmortem brain section of patient with Alzheimer's disease (Example 7); format: binding, human (Alzheimer's disease patient); conditions: brain section (temporal lobe) of Alzheimer's disease patient; 0.37 MBq/100 μL, 1 hour
Procedure: A postmortem autopsy brain section (temporal lobe) of a patient with Alzheimer's disease was incubated together with each of [^18F]E3, [^18F]D3, [^18F]E1, and [^18F]E2 (0.37 MBq/100 μL each) at room temperature for 1 hour. The resultant was washed with a 50 volume % ethanol aqueous solution (2 minutes×2) and water (2 minutes×2), and after drying, the section was contacted with BAS imaging plate (from Fujifilm Corporation) for 1.5 hours. The image of autoradiography was obtained using BAS5000 scanner system (from Fujifilm Corporation).
A section adjacent to the brain section used was immunostained in the following manner.
First, a paraffin-embedded brain section of the Alzheimer's disease patient (temporal lobe, 6 μm in thickness) was incubated with xylene (15 minutes×2), ethanol (1 minute×2), a 90 volume % ethanol aqueous solution (1 minute×2), and a 70 volume % ethanol aqueous solution (1 minute×1) in that order for complete deparaffinization, and then washed in water (2.5 minutes×2). Thereafter, the section was subjected to autoclave treatment for 15 minutes in 0.01 mol/L citrate buffer solution (pH 6.0). The resultant was incubated in PBS-Tween20 (5 minutes×2), and a mouse anti-Aβ1-42 primary monoclonal antibody (from Wako Pure Chemical Industries Ltd.) was then added thereto, which was then incubated at room temperature overnight. The resultant was incubated in PBS-Tween20 (2 minutes×3), and a biotin-goat anti-mouse IgG (from Funakoshi Co., Ltd.) was then added thereto, which was then incubated at room temperature for 1 hour. The resultant was incubated in PBS-Tween20 (5 minutes×3), and a streptavidin-peroxidase complex (from Funakoshi Co., Ltd.) was added thereto, which was then incubated at room temperature for 30 minutes. In addition, the resultant was incubated in PBS-Tween20 (2 minutes×3); 3,3′-diaminobenzidine was added thereto, which was then incubated at room temperature for 30 minutes; and after washing with water, the section was observed under a microscope to provide an immunostained image (FIG. 10).

[3] = In vivo radioactivity distribution experiment (Example 8); conditions: ddY mice, tail vein, SD in parenthesis
Procedure: Through the tail vein of ddY mice (male, 5 week-old) was injected each of a 10 volume % ethanol-containing saline solution of [^18F]E3 (45.4 kBq, 100 μL), a 10 volume % ethanol-containing saline solution of [^18F]D3 (38.2 kBq, 100 μL), a 10 volume % ethanol-containing saline solution of [^18F]E1 (45.1 kBq, 100 μL), and a 10 volume % ethanol-containing saline solution of [^18F]E2 (40.6 kBq, 100 μL). Five mice were used for each group and sacrificed 2, 10, 30, and 60 minutes after administration to remove major organs. The blood and organs were weighed and further measured for radioactivity using a γ counter. The amount of radioactivity per unit mass was measured in each organ to evaluate radioactivity distribution.

T1 sequence (P05067 672-713 limits assumed): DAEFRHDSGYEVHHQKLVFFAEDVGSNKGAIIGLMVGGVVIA

Nc1ccc(-c2cnc3cc(OCCF)ccc3n2)cc1 [Compound D1, 4-(6-(2-Fluoroethoxy)quinoxalin-2-yl)aniline]
Ki [1]: 242 ± 29 nM

CNc1ccc(-c2cnc3cc(OCCF)ccc3n2)cc1 [Compound D2, 4-(6-(2-Fluoroethoxy)quinoxalin-2-yl)-N-methylaniline]
binding affinity relative to D1 ([1]; Ki of D2 compared with D1): ≥ 10 times | Ki [1]: 15.7 ± 1.28 nM

CNc1ccc(-c2cnc3ccc(OCC[18F])cc3n2)cc1 [[^18F]E2, 4-(7-(2-[^18F]Fluoroethoxy)quinoxalin-2-yl)-N-methylaniline]
visualization of gray matter / amyloid plaques by autoradiography [2]: did not visualize the gray matter but rather strongly visualized the white matter | Radioactivity Amount, Blood ([3]; 2 min. after): 3.37 (0.46) % injected dose/g | Radioactivity Amount, Blood ([3]; 10 min. after): 3.83 (1.24) % injected dose/g | Radioactivity Amount, Blood ([3]; 30 min. after): 3.10 (0.34) % injected dose/g | Radioactivity Amount, Blood ([3]; 60 min. after): 3.40 (0.32) % injected dose/g | Radioactivity Amount, Bone ([3]; 2 min. after): 1.86 (0.53) % injected dose/g | Radioactivity Amount, Bone ([3]; 10 min. after): 1.91 (0.54) % injected dose/g | Radioactivity Amount, Bone ([3]; 30 min. after): 2.07 (3.97) % injected dose/g | Radioactivity Amount, Bone ([3]; 60 min. after): 2.36 (1.16) % injected dose/g | Radioactivity Amount, Brain ([3]; 2 min. after): 5.96 (0.48) % injected dose/g | Radioactivity Amount, Brain ([3]; 10 min. after): 3.77 (0.40) % injected dose/g | Radioactivity Amount, Brain ([3]; 30 min. after): 2.18 (0.22) % injected dose/g | Radioactivity Amount, Brain ([3]; 60 min. after): 1.91 (0.15) % injected dose/g | Radioactivity Amount, Heart ([3]; 2 min. after): 7.42 (0.53) % injected dose/g | Radioactivity Amount, Heart ([3]; 10 min. after): 4.41 (0.17) % injected dose/g | Radioactivity Amount, Heart ([3]; 30 min. after): 8.53 (12.0) % injected dose/g | Radioactivity Amount, Heart ([3]; 60 min. after): 3.92 (0.64) % injected dose/g | Radioactivity Amount, Intestine ([3]; 2 min. after): 3.46 (0.75) % injected dose/g | Radioactivity Amount, Intestine ([3]; 10 min. after): 12.5 (2.77) % injected dose/g | Radioactivity Amount, Intestine ([3]; 30 min. after): 20.3 (2.55) % injected dose/g | Radioactivity Amount, Intestine ([3]; 60 min. after): 22.1 (2.95) % injected dose/g | Radioactivity Amount, Kidney ([3]; 2 min. after): 11.8 (2.51) % injected dose/g | Radioactivity Amount, Kidney ([3]; 10 min. after): 7.55 (0.36) % injected dose/g | Radioactivity Amount, Kidney ([3]; 30 min. after): 3.92 (0.45) % injected dose/g | Radioactivity Amount, Kidney ([3]; 60 min. after): 3.12 (0.41) % injected dose/g | Radioactivity Amount, Liver ([3]; 2 min. after): 6.84 (1.50) % injected dose/g | Radioactivity Amount, Liver ([3]; 10 min. after): 11.7 (0.58) % injected dose/g | Radioactivity Amount, Liver ([3]; 30 min. after): 7.95 (1.32) % injected dose/g | Radioactivity Amount, Liver ([3]; 60 min. after): 6.95 (0.68) % injected dose/g | Radioactivity Amount, Lung ([3]; 2 min. after): 6.71 (0.24) % injected dose/g | Radioactivity Amount, Lung ([3]; 10 min. after): 4.98 (0.56) % injected dose/g | Radioactivity Amount, Lung ([3]; 30 min. after): 3.34 (0.55) % injected dose/g | Radioactivity Amount, Lung ([3]; 60 min. after): 4.06 (0.99) % injected dose/g | Radioactivity Amount, Pancreas ([3]; 2 min. after): 5.42 (0.13) % injected dose/g | Radioactivity Amount, Pancreas ([3]; 10 min. after): 4.91 (0.95) % injected dose/g | Radioactivity Amount, Pancreas ([3]; 30 min. after): 2.60 (0.25) % injected dose/g | Radioactivity Amount, Pancreas ([3]; 60 min. after): 2.73 (0.31) % injected dose/g | Radioactivity Amount, Spleen ([3]; 2 min. after): 2.71 (0.44) % injected dose/g | Radioactivity Amount, Spleen ([3]; 10 min. after): 4.53 (0.62) % injected dose/g | Radioactivity Amount, Spleen ([3]; 30 min. after): 3.33 (0.66) % injected dose/g | Radioactivity Amount, Spleen ([3]; 60 min. after): 3.17 (0.62) % injected dose/g | Radioactivity Amount, Stomach* ([3]; 2 min. after): 1.13 (0.18) % injected dose per organ | Radioactivity Amount, Stomach* ([3]; 10 min. after): 2.11 (0.55) % injected dose per organ | Radioactivity Amount, Stomach* ([3]; 30 min. after): 1.56 (0.34) % injected dose per organ | Radioactivity Amount, Stomach* ([3]; 60 min. after): 2.73 (2.44) % injected dose per organ
